According to paper PMC12669040, “Tumour-specific STING agonist synthesis via a two-component prodrug system” (Nature Chemistry, 2025):
Where “and” joins values, the source holds several entries; their conditions need not be identical. Identical values can stand only once.

Key:
[1] = Colorimetric alkylation rate constant assay with TNB^2− as non-specific thiol; type: physicochemical; parameters: second-order: unit not given here; conditions: for remaining [B]: in µM
[2] = Colorimetric alkylation rate constant assay with thiol N1; type: physicochemical; conditions: for remaining [A]: N1 from calibration curve (N1 in uM); for remaining [A] / remaining [B]: in µM
[3] = Time 2891 sec, [B]0 = 250, Replicates 1-3
[4] = Time 3071 sec, [B]0 = 250, Replicates 1-3
[5] = Time 3252 sec, [B]0 = 250, Replicates 1-3
[6] = Time 3433 sec, [B]0 = 250, Replicates 1-3
[7] = Time 3613 sec, [B]0 = 250, Replicates 1-3

Compound: COc1cc2sc(C(=O)CCC(=O)O)cc2cc1NC(=O)CCl [Compound E2]
- remaining [B] ([1]; Replicate 1, 723 sec, [B]0 = 250): 243.335
- remaining [B] ([1]; Replicate 1, 903 sec, [B]0 = 250): 243.032
- remaining [B] ([1]; Replicate 1, 1084 sec, [B]0 = 250): 242.818
- remaining [B] ([1]; Replicate 1, 1265 sec, [B]0 = 250): 242.415
- remaining [B] ([1]; Replicate 1, 1445 sec, [B]0 = 250): 242.176
- remaining [B] ([1]; Replicate 1, 1626 sec, [B]0 = 250): 241.949
- remaining [B] ([1]; Replicate 1, 1806 sec, [B]0 = 250): 241.659
- remaining [B] ([1]; Replicate 1, 1988 sec, [B]0 = 250): 241.394
- remaining [B] ([1]; Replicate 1, 2168 sec, [B]0 = 250): 241.004
- remaining [B] ([1]; Replicate 1, 2349 sec, [B]0 = 250): 240.752
- remaining [B] ([1]; Replicate 1, 2530 sec, [B]0 = 250): 240.437
- remaining [B] ([1]; Replicate 1, 2710 sec, [B]0 = 250): 240.323
- remaining [B] ([1]; Replicate 2, 542 sec, [B]0=250): 243.63
- remaining [B] ([1]; Replicate 2, 723 sec, [B]0=250): 243.24
- remaining [B] ([1]; Replicate 2, 903 sec, [B]0=250): 242.962
- remaining [B] ([1]; Replicate 2, 1084 sec, [B]0=250): 242.698
- remaining [B] ([1]; Replicate 2, 1265 sec, [B]0=250): 242.446
- remaining [B] ([1]; Replicate 2, 1445 sec, [B]0=250): 242.169
- remaining [B] ([1]; Replicate 2, 1626 sec, [B]0=250): 241.929
- remaining [B] ([1]; Replicate 2, 1806 sec, [B]0=250): 241.639
- remaining [B] ([1]; Replicate 2, 1988 sec, [B]0=250): 241.4
- remaining [B] ([1]; Replicate 2, 2168 sec, [B]0=250): 241.098
- remaining [B] ([1]; Replicate 2, 2349 sec, [B]0=250): 240.858
- remaining [B] ([1]; Replicate 2, 2530 sec, [B]0=250): 240.593
- remaining [B] ([1]; Replicate 2, 2710 sec, [B]0=250): 240.316
- remaining [B] ([1]; Replicate 3, 723 sec, [B]0=250): 242.314
- remaining [B] ([1]; Replicate 3, 903 sec, [B]0=250): 241.999
- remaining [B] ([1]; Replicate 3, 1084 sec, [B]0=250): 241.659
- remaining [B] ([1]; Replicate 3, 1265 sec, [B]0=250): 241.344
- remaining [B] ([1]; Replicate 3, 1445 sec, [B]0=250): 241.041
- remaining [B] ([1]; Replicate 3, 1626 sec, [B]0=250): 240.789
- remaining [B] ([1]; Replicate 3, 1806 sec, [B]0=250): 240.5
- remaining [B] ([1]; Replicate 3, 1988 sec, [B]0=250): 240.273
- remaining [B] ([1]; Replicate 3, 2168 sec, [B]0=250): 240.008
- remaining [B] ([1]; Replicate 3, 2349 sec, [B]0=250): 239.706
- remaining [B] ([1]; Replicate 3, 2530 sec, [B]0=250): 239.492
- remaining [B] ([1]; Replicate 3, 2710 sec, [B]0=250): 239.164
- second-order [1, 3]: 0.0004296 and 0.0004811 and 0.0004316
- remaining [B] [1, 3]: 238.912 and 239.97 and 240.014
- second-order [1, 4]: 0.0004407 and 0.0004923 and 0.0004463
- remaining [B] [1, 4]: 238.673 and 239.655 and 239.774
- second-order [1, 5]: 0.0004524 and 0.0005067 and 0.0004586
- remaining [B] [1, 5]: 238.37 and 239.391 and 239.522
- second-order [1, 6]: 0.0004672 and 0.0005187 and 0.0004692
- remaining [B] [1, 6]: 238.118 and 239.164 and 239.207
- second-order [1, 7]: 0.0004772 and 0.0005343 and 0.0004876
- remaining [B] [1, 7]: 237.79
- second-order ([1]; Time 3794 sec, [B]0 = 250, Replicates 1-3): 0.0004927 and 0.000547 and 0.0004971
- second-order ([1]; Time 3974 sec, [B]0 = 250, Replicates 1-3): 0.0005034 and 0.0005579 and 0.0005103
- second-order ([1]; Time 4155 sec, [B]0 = 250, Replicates 1-3): 0.0005154 and 0.0005714 and 0.0005211
- second-order ([1]; Time 4336 sec, [B]0 = 250, Replicates 1-3): 0.0005298 and 0.0005836 and 0.0005397
- second-order ([1]; Time 4516 sec, [B]0 = 250, Replicates 1-3): 0.0005443 and 0.0005965 and 0.0005531
- second-order ([1]; Time 4697 sec, [B]0 = 250, Replicates 1-3): 0.0005528 and 0.0006095 and 0.0005659
- second-order ([1]; Time 4878 sec, [B]0 = 250, Replicates 1-3): 0.0005674 and 0.0006188 and 0.0005756
- second-order ([1]; Time 5058 sec, [B]0 = 250, Replicates 1-3): 0.0005809 and 0.0006349 and 0.000586
- second-order ([1]; Time 5239 sec, [B]0 = 250, Replicates 1-3): 0.0005944 and 0.0006468 and 0.0006002
- second-order ([1]; Time 5419 sec, [B]0 = 250, Replicates 1-3): 0.0006061 and 0.0006606 and 0.0006132
- second-order ([1]; Time 5600 sec, [B]0 = 250, Replicates 1-3): 0.0006185 and 0.0006707 and 0.0006275
- second-order ([1]; Time 5781 sec, [B]0 = 250, Replicates 1-3): 0.0006334 and 0.0006852 and 0.0006393
- second-order ([1]; Time 5961 sec, [B]0 = 250, Replicates 1-3): 0.0006459 and 0.0007024 and 0.0006549
- remaining [A] ([2]; Replicate 1, time 576 sec): 17.5091
- remaining [B] ([2]; Replicate 1, time 576 sec, [B]0 = 250): 163.389
- second-order ([2]; Replicate 1, time 576 sec, second-order plot value): 0.009306
- remaining [A] ([2]; Replicate 1, time 606 sec): 16.6256
- remaining [B] ([2]; Replicate 1, time 606 sec, [B]0 = 250): 162.506
- second-order ([2]; Replicate 1, time 606 sec, second-order plot value): 0.009623
- remaining [A] ([2]; Replicate 2, time 576 sec): 15.4999
- remaining [B] ([2]; Replicate 2, time 576 sec, [B]0=250): 162.358
- second-order ([2]; Replicate 2, time 576 sec, second-order plot value): 0.009966
- remaining [A] ([2]; Replicate 2, time 606 sec): 14.5929
- remaining [B] ([2]; Replicate 2, time 606 sec, [B]0=250): 161.451
- second-order ([2]; Replicate 2, time 606 sec, second-order plot value): 0.01034
- remaining [A] ([2]; Replicate 3, time 576 sec): 17.4849
- remaining [B] ([2]; Replicate 3, time 576 sec, [B]0=250): 162.938
- second-order ([2]; Replicate 3, time 576 sec, second-order plot value): 0.009352
- remaining [A] ([2]; Replicate 3, time 606 sec): 16.538
- remaining [B] ([2]; Replicate 3, time 606 sec, [B]0=250): 161.991
- second-order ([2]; Replicate 3, time 606 sec, second-order plot value): 0.009694
- remaining [B] ([2]; time 0 sec, [B]0 = 250, replicates 1-3): 219.942 and 218.28 and 218.112
- second-order ([2]; time 0 sec, replicates 1-3): 0.001589 and 0.00145 and 0.001561
- remaining [B] ([2]; time 30 sec, [B]0 = 250, replicates 1-3): 211.555 and 211.839 and 210.232
- second-order ([2]; time 30 sec, replicates 1-3): 0.002137 and 0.002004 and 0.001994
- remaining [B] ([2]; time 60 sec, [B]0 = 250, replicates 1-3): 204.386 and 206.139 and 202.834
- second-order ([2]; time 60 sec, replicates 1-3): 0.002738 and 0.002556 and 0.002427
- remaining [B] ([2]; time 91 sec, [B]0 = 250, replicates 1-3): 199.029 and 200.952 and 197.251
- second-order ([2]; time 91 sec, replicates 1-3): 0.003264 and 0.003029 and 0.002869
- remaining [B] ([2]; time 121 sec, [B]0 = 250, replicates 1-3): 194.402 and 196.363 and 192.97
- second-order ([2]; time 121 sec, replicates 1-3): 0.003719 and 0.003488 and 0.003307
- remaining [B] ([2]; time 151 sec, [B]0 = 250, replicates 1-3): 190.452 and 192.373 and 188.804
- second-order ([2]; time 151 sec, replicates 1-3): 0.004215 and 0.003925 and 0.003731
- remaining [B] ([2]; time 182 sec, [B]0 = 250, replicates 1-3): 186.908 and 188.84 and 185.431
- second-order ([2]; time 182 sec, replicates 1-3): 0.004663 and 0.00436 and 0.004145
- remaining [B] ([2]; time 212 sec, [B]0 = 250, replicates 1-3): 183.932 and 185.762 and 182.511
- second-order ([2]; time 212 sec, replicates 1-3): 0.005091 and 0.004762 and 0.004542
- remaining [B] ([2]; time 242 sec, [B]0 = 250, replicates 1-3): 181.254 and 182.541 and 179.734
- second-order ([2]; time 242 sec, replicates 1-3): 0.005539 and 0.005157 and 0.005
- remaining [B] ([2]; time 273 sec, [B]0 = 250, replicates 1-3): 178.711 and 180.147 and 177.239
- second-order ([2]; time 273 sec, replicates 1-3): 0.005981 and 0.005566 and 0.005372
- remaining [B] ([2]; time 303 sec, [B]0 = 250, replicates 1-3): 176.384 and 177.582 and 175.227
- second-order ([2]; time 303 sec, replicates 1-3): 0.00637 and 0.005975 and 0.005807
- remaining [B] ([2]; time 333 sec, [B]0 = 250, replicates 1-3): 174.382 and 175.53 and 173.129
- second-order ([2]; time 333 sec, replicates 1-3): 0.006811 and 0.006357 and 0.006186
- remaining [B] ([2]; time 364 sec, [B]0 = 250, replicates 1-3): 172.461 and 173.364 and 171.287
- second-order ([2]; time 364 sec, replicates 1-3): 0.007233 and 0.006753 and 0.006621
- remaining [B] ([2]; time 394 sec, [B]0 = 250, replicates 1-3): 170.756 and 171.54 and 169.7
- second-order ([2]; time 394 sec, replicates 1-3): 0.007627 and 0.007133 and 0.007019
- remaining [B] ([2]; time 424 sec, [B]0 = 250, replicates 1-3): 169.187 and 169.802 and 168.141
- second-order ([2]; time 424 sec, replicates 1-3): 0.008046 and 0.007509 and 0.00743
- remaining [B] ([2]; time 454 sec, [B]0 = 250, replicates 1-3): 167.699 and 168.519 and 166.865
- second-order ([2]; time 454 sec, replicates 1-3): 0.008415 and 0.007894 and 0.007756
- remaining [B] ([2]; time 485 sec, [B]0 = 250, replicates 1-3): 166.401 and 167.208 and 165.59
- second-order ([2]; time 485 sec, replicates 1-3): 0.008811 and 0.008254 and 0.008111
- remaining [B] ([2]; time 515 sec, [B]0 = 250, replicates 1-3): 165.237 and 165.84 and 164.371
- second-order ([2]; time 515 sec, replicates 1-3): 0.009219 and 0.008598 and 0.00851
- remaining [B] ([2]; time 545 sec, [B]0 = 250, replicates 1-3): 164.02 and 164.7 and 163.322
- second-order ([2]; time 545 sec, replicates 1-3): 0.009596 and 0.008984 and 0.008865
